Reference: ChEMBL document CHEMBL1201862, “PubChem BioAssay data set” (2004)
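Briefly, cells in 96-well plates were exposed to five compound concentrations for 48 h, and endpoints were estimated by linear interpolation. GI50 = concentration required for 50% inhibition of growth.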 Calls of active or inactive are those of the source. Cut-off read from the data, not from the text of the source: active = GI50 up to about 1.1 µM and inactive = higher.

Assays:
Experiment in all cases: NCI-60 cell line screen, 48 h
OVCAR-5 = system: OVCAR-5
RXF 631 = system: RXF 631
HL-60 = system: HL-60
IGROV-1 = system: IGROV-1
HOP-18 = system: HOP-18
RXF 393 = system: RXF 393
EKVX = system: EKVX
SK-MEL-2 = system: SK-MEL-2
SF-268 = system: SF-268
OVCAR-3 = system: OVCAR-3
UACC-62 = system: UACC-62
Malme-3M = system: Malme-3M
HOP-62 = system: HOP-62
SW-620 = system: SW-620
COLO 205 = system: COLO 205
M14 = system: M14
SNB-78 = system: SNB-78
UACC-257 = system: UACC-257
NCI-H522 = system: NCI-H522
KM-20L2 = system: KM-20L2
SNB-19 = system: SNB-19
HCT-116 = system: HCT-116
UO-31 = system: UO-31
DMS-273 = system: DMS-273
K562 = system: K562
LXFL 529 = system: LXFL 529
SK-OV-3 = system: SK-OV-3
SF-539 = system: SF-539
DMS-114 = system: DMS-114
KM12 = system: KM12
M19-MEL = system: M19-MEL
SK-MEL-5 = system: SK-MEL-5
SK-MEL-28 = system: SK-MEL-28
HCT-15 = system: HCT-15
OVCAR-4 = system: OVCAR-4
NCI-H460 = system: NCI-H460
HCC 2998 = system: HCC 2998
HT-29 = system: HT-29
786-0 = system: 786-0
A549 = system: A549
SF-295 = system: SF-295
A498 = system: A498
OVCAR-8 = system: OVCAR-8
SN12C = system: SN12C
RPMI-8226 = system: RPMI-8226
SNB-75 = system: SNB-75
HOP-92 = system: HOP-92
NCI-H226 = system: NCI-H226
XF498 = system: XF498
ACHN = system: ACHN
TK-10 = system: TK-10
U-251 = system: U-251
LOX IMVI = system: LOX IMVI
CAKI-1 = system: CAKI-1
CCRF-CEM = system: CCRF-CEM
MOLT-4 = system: MOLT-4
SR = system: SR
DLD-1 = system: DLD-1
NCI-H23 = system: NCI-H23

How did the GI50 (OVCAR-5) turn out when `O=C(O)/C=C\C(=O)c1ccc(Cl)cc1` was run?
Its GI50 is > 100 µM (inactive).

What about the GI50 (RXF 631) of the same molecule?
The GI50 was > 100 µM (inactive).

What about the GI50 (HL-60) of the same molecule?
The GI50 was 23.5 µM (inactive).

What about the GI50 (IGROV-1) of the same molecule?
The GI50 was > 70.1 µM (inactive).

What about the GI50 (HOP-18) of the same molecule?
Its GI50 is > 69.2 µM (inactive).

What about the GI50 (RXF 393) of the same molecule?
The GI50 was 21.5 µM (inactive).

And the GI50 (EKVX)?
The GI50 was > 56.4 µM (inactive).

What about the GI50 (SK-MEL-2) of the same molecule?
Its GI50 is 28.6 µM (inactive).

What about the GI50 (SF-268) of the same molecule?
The GI50 was 29.4 µM (inactive).

What about the GI50 (OVCAR-3) of the same molecule?
The GI50 was 28.8 µM (inactive).

And the GI50 (UACC-62)?
The GI50 was 29.9 µM (inactive).

What about the GI50 (Malme-3M) of the same molecule?
Its GI50 is 18.9 µM (inactive).

And the GI50 (HOP-62)?
Its GI50 is > 100 µM (inactive).

What about the GI50 (SW-620) of the same molecule?
The GI50 was 24 µM (inactive).

What about the GI50 (COLO 205) of the same molecule?
The GI50 was 19.6 µM (inactive).

And the GI50 (M14)?
Its GI50 is 18.5 µM (inactive).

And the GI50 (SNB-78)?
Its GI50 is 33.7 µM (inactive).

And the GI50 (UACC-257)?
Its GI50 is 20.1 µM (inactive).

What about the GI50 (NCI-H522) of the same molecule?
The GI50 was > 100 µM (inactive).

And the GI50 (KM-20L2)?
The GI50 was 36.7 µM (inactive).

And the GI50 (SNB-19)?
Its GI50 is > 63 µM (inactive).

And the GI50 (HCT-116)?
The GI50 was 25.2 µM (inactive).

And the GI50 (UO-31)?
The GI50 was 33.9 µM (inactive).

What about the GI50 (DMS-273) of the same molecule?
The GI50 was 20.2 µM (inactive).

What about the GI50 (K562) of the same molecule?
The GI50 was 31.1 µM (inactive).

What about the GI50 (LXFL 529) of the same molecule?
Its GI50 is 21.8 µM (inactive).

And the GI50 (SK-OV-3)?
The GI50 was > 100 µM (inactive).

And the GI50 (SF-539)?
Its GI50 is 25.1 µM (inactive).

And the GI50 (DMS-114)?
The GI50 was 21.4 µM (inactive).

What about the GI50 (KM12) of the same molecule?
Its GI50 is 52.1 µM (inactive).

And the GI50 (M19-MEL)?
Its GI50 is 24.3 µM (inactive).

And the GI50 (SK-MEL-5)?
The GI50 was > 83.9 µM (inactive).

And the GI50 (SK-MEL-28)?
Its GI50 is 18.7 µM (inactive).

And the GI50 (HCT-15)?
Its GI50 is 20.7 µM.

And the GI50 (OVCAR-4)?
The GI50 was 29.6 µM (inactive).

What about the GI50 (NCI-H460) of the same molecule?
Its GI50 is > 100 µM (inactive).

What about the GI50 (HCC 2998) of the same molecule?
The GI50 was > 100 µM (inactive).

What about the GI50 (HT-29) of the same molecule?
The GI50 was 27.2 µM (inactive).

And the GI50 (786-0)?
Its GI50 is 28.9 µM (inactive).

What about the GI50 (A549) of the same molecule?
Its GI50 is > 100 µM (inactive).

And the GI50 (SF-295)?
Its GI50 is > 100 µM (inactive).

And the GI50 (A498)?
Its GI50 is 79.8 µM (inactive).

And the GI50 (OVCAR-8)?
The GI50 was > 74.6 µM (inactive).

And the GI50 (SN12C)?
The GI50 was 51.9 µM (inactive).

What about the GI50 (RPMI-8226) of the same molecule?
Its GI50 is 25.2 µM (inactive).

And the GI50 (SNB-75)?
Its GI50 is 44 µM (inactive).

What about the GI50 (HOP-92) of the same molecule?
Its GI50 is 24.5 µM (inactive).

And the GI50 (NCI-H226)?
The GI50 was > 55.8 µM (inactive).

And the GI50 (XF498)?
The GI50 was 27.7 µM (inactive).

And the GI50 (ACHN)?
Its GI50 is 21.3 µM (inactive).

What about the GI50 (TK-10) of the same molecule?
The GI50 was 40.5 µM (inactive).

What about the GI50 (U-251) of the same molecule?
The GI50 was > 56.9 µM (inactive).

And the GI50 (LOX IMVI)?
The GI50 was 24.9 µM (inactive).

What about the GI50 (CAKI-1) of the same molecule?
The GI50 was 24.7 µM (inactive).

What about the GI50 (CCRF-CEM) of the same molecule?
The GI50 was 20 µM (inactive).

What about the GI50 (MOLT-4) of the same molecule?
Its GI50 is 24.7 µM (inactive).

And the GI50 (SR)?
The GI50 was 24.3 µM (inactive).

And the GI50 (DLD-1)?
Its GI50 is 35.2 µM (inactive).

And the GI50 (NCI-H23)?
Its GI50 is 31.8 µM (inactive).

Which GI50 (OVCAR-5) does the source give for `COc1cc(Br)c(/C=N/N=C(\N)NO)cc1OC` here?
Its GI50 is 21.8 µM (inactive).

And the GI50 (RXF 631)?
The GI50 was 11.6 µM (inactive).

What about the GI50 (HL-60) of the same molecule?
Its GI50 is 26.9 µM (inactive).

And the GI50 (IGROV-1)?
The GI50 was 30.4 µM (inactive).

And the GI50 (HOP-18)?
Its GI50 is 4.72 µM (inactive).

And the GI50 (RXF 393)?
Its GI50 is 21.9 µM (inactive).

What about the GI50 (EKVX) of the same molecule?
Its GI50 is 7.21 µM (inactive).

And the GI50 (SK-MEL-2)?
Its GI50 is 26.1 µM (inactive).

And the GI50 (SF-268)?
Its GI50 is 8.87 µM (inactive).

What about the GI50 (OVCAR-3) of the same molecule?
Its GI50 is 33.2 µM (inactive).

What about the GI50 (UACC-62) of the same molecule?
The GI50 was 11.1 µM (inactive).

And the GI50 (Malme-3M)?
The GI50 was 21.1 µM (inactive).

What about the GI50 (HOP-62) of the same molecule?
The GI50 was 14.1 µM (inactive).

What about the GI50 (SW-620) of the same molecule?
The GI50 was 35.1 µM (inactive).

What about the GI50 (COLO 205) of the same molecule?
The GI50 was 11 µM (inactive).

What about the GI50 (M14) of the same molecule?
The GI50 was 16.4 µM (inactive).

And the GI50 (SNB-78)?
The GI50 was 73.3 µM (inactive).

What about the GI50 (UACC-257) of the same molecule?
Its GI50 is 17.3 µM (inactive).

What about the GI50 (NCI-H522) of the same molecule?
Its GI50 is 15.2 µM (inactive).

What about the GI50 (KM-20L2) of the same molecule?
Its GI50 is 5.73 µM (inactive).

And the GI50 (SNB-19)?
The GI50 was 46.3 µM (inactive).

What about the GI50 (HCT-116) of the same molecule?
The GI50 was 15.2 µM (inactive).

And the GI50 (UO-31)?
Its GI50 is 20.3 µM (inactive).

And the GI50 (DMS-273)?
Its GI50 is 40.8 µM (inactive).

And the GI50 (K562)?
The GI50 was 15.7 µM (inactive).

And the GI50 (LXFL 529)?
Its GI50 is 10.9 µM (inactive).

And the GI50 (SK-OV-3)?
The GI50 was 10.6 µM (inactive).

What about the GI50 (SF-539) of the same molecule?
The GI50 was 24.7 µM (inactive).

And the GI50 (DMS-114)?
Its GI50 is 12.4 µM (inactive).

What about the GI50 (KM12) of the same molecule?
The GI50 was 15.5 µM (inactive).

And the GI50 (M19-MEL)?
The GI50 was 19.6 µM (inactive).

What about the GI50 (SK-MEL-5) of the same molecule?
The GI50 was 6.78 µM (inactive).

What about the GI50 (SK-MEL-28) of the same molecule?
Its GI50 is 17.5 µM (inactive).

And the GI50 (HCT-15)?
The GI50 was 36 µM.

What about the GI50 (OVCAR-4) of the same molecule?
The GI50 was 54.5 µM (inactive).

And the GI50 (NCI-H460)?
The GI50 was 5.22 µM (inactive).

What about the GI50 (HCC 2998) of the same molecule?
Its GI50 is 12.3 µM (inactive).

What about the GI50 (HT-29) of the same molecule?
Its GI50 is 15 µM (inactive).

What about the GI50 (786-0) of the same molecule?
Its GI50 is 18.4 µM (inactive).

And the GI50 (A549)?
The GI50 was 10.4 µM (inactive).

And the GI50 (SF-295)?
The GI50 was 28.5 µM (inactive).

And the GI50 (A498)?
Its GI50 is 32.8 µM (inactive).

And the GI50 (OVCAR-8)?
The GI50 was 15.6 µM (inactive).

What about the GI50 (SN12C) of the same molecule?
The GI50 was 24.6 µM (inactive).

And the GI50 (RPMI-8226)?
Its GI50 is > 100 µM (inactive).

What about the GI50 (SNB-75) of the same molecule?
The GI50 was 21.3 µM (inactive).

What about the GI50 (HOP-92) of the same molecule?
Its GI50 is 23.6 µM (inactive).

And the GI50 (NCI-H226)?
The GI50 was 10.9 µM (inactive).

What about the GI50 (XF498) of the same molecule?
The GI50 was 13.6 µM (inactive).

What about the GI50 (ACHN) of the same molecule?
Its GI50 is 9.35 µM (inactive).

What about the GI50 (TK-10) of the same molecule?
The GI50 was 7.69 µM (inactive).

And the GI50 (U-251)?
The GI50 was 23.4 µM (inactive).

What about the GI50 (LOX IMVI) of the same molecule?
The GI50 was 17.6 µM (inactive).

What about the GI50 (CAKI-1) of the same molecule?
The GI50 was 14.7 µM (inactive).

What about the GI50 (CCRF-CEM) of the same molecule?
Its GI50 is 30.1 µM (inactive).

What about the GI50 (MOLT-4) of the same molecule?
The GI50 was 57.1 µM (inactive).

What about the GI50 (SR) of the same molecule?
Its GI50 is 11.8 µM (inactive).

And the GI50 (DLD-1)?
The GI50 was 25.9 µM (inactive).

And the GI50 (NCI-H23)?
Its GI50 is 26 µM (inactive).
